Experimental findings from patent US20150201650A1, “DIETARY SUPPLEMENT” (Vetafarm Europe Ltd, priority 2009, published 2015) are described below.

Values joined by “and” are separate entries in the source; they are usually repeats but may differ in a detail not shown here. Equal entries are not always repeated. “Also recorded” adds a separate entry of the source.

This assay deals with horses demonstrating agitated behaviour. The assay is described as follows: Feeding trial of calcium supplements in horses demonstrating agitated behaviour, marked by the feeder. It is filed as in vivo, horse. To be noted: for average mark for horses: mean of the feeders' marks (1 bad, 5 good); for feeder's general comment on the horse's behaviour during the trial / mark provided by the feeder, based on the effect noted in the behaviour of the horse: single horse; for mark provided by the feeder, based on the effect noted in the behaviour of the horse: mark between 1 and 5 (bad is 1, good is 5). The source says:
The horses were given doses of calcium chelate calculated to provide a loading dose of 12 grams of calcium per day for five days each week for a period of a month. In the calcium carbonate subject the feed dose was 24 or 48 grams of calcium per day. The feeder provided a mark between 1 and 5 where bad is 1 and good is 5. The mark allocated was based on the effect noted in the behaviour of the horse. The feeder also provided general comments on the horses' behaviour during the trial.

The mark [1] stands for this setting: 12 grams of calcium per day, five days each week for a month.
The mark [2] stands for this setting: loading dose of 12 grams of calcium per day, five days each week for a month, supplement of the calcium chelate only.
Where [3] appears, read: 60 grams of calcium carbonate only.
[4] abbreviates: 120 grams of calcium carbonate only.

For the compound calcium gluconate, under setting [1], the “average mark for horses” value came out at 3.33 and the “feeder's general comment on the horse's behaviour during the trial” value (“feeder's general comment” for short) is given as “calmed down without losing any energy; also recorded: did not notice a difference in the horses' behaviour for the first couple of weeks; also recorded: within two weeks the horse was completely calm”. Moreover, the “mark provided by the feeder, based on the effect noted in the behaviour of the horse” value (from here on “mark provided by the feeder, based”) under setting [2] is 4.5 and 2.5 and 3.

With `O=C([O-])[O-].[Ca+2]` [calcium carbonate, reference compound], for the setting “feed dose 24 or 48 grams of calcium per day as calcium carbonate”, the “average mark for horses” value worked out at 1.67. Moreover, under setting [3], the “feeder's general comment” value was “not much difference in the behaviour; also recorded: No significant change”; the “mark provided by the feeder, based” value is 1.5 and 1. For the same compound, under setting [4], the “feeder's general comment” value is given as “small improvement in the horse's behaviour but not sufficient for the horse to be ridden” and the “mark provided by the feeder, based” value came out at 2.5.

Turning to `O=C([O-])CC(O)(CC(=O)[O-])C(=O)[O-].O=C([O-])CC(O)(CC(=O)[O-])C(=O)[O-].[Ca+2].[Ca+2].[Ca+2]` [calcium citrate], under setting [1], the “average mark for horses” value came to 4.6; the “feeder's general comment” value is “a lot calmer and rational; also recorded: much calmer and friendlier; also recorded: very good response; also recorded: much calmer generally”. Further, under setting [2], the “mark provided by the feeder, based” value is 4.5 and 4 and 5.
